The values that follow come from US8575197B2, “Pyrolinone derivative and pharmaceutical composition comprising the same” (Shionogi & Co., Ltd., priority 2008, dated 2013).

The IC50 is the concentration that gives 50% inhibition.

The target in this assay is human P2X3 receptor (Homo sapiens (Human), UniProt P56373). In words: P2X3 receptor inhibition, ATP-evoked Fluo-3 calcium fluorescence (FDSS 3000). Conditions: C6BU-1 cell transfected with human P2X3 receptor gene; ATP-evoked Fluo-3 fluorescence. Format: cell-based. An outline of the steps:
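C6BU-1 cells stably transfected with human P2X3, loaded with 4 μM Fluo-3-AM for 1 h at 37 °C in HEPES buffer pH 7.5 with probenecid. Compound added 5 min before 40 nM ATP solution; fluorescence followed 3 min. IC50 from ratio of peak post-ATP to baseline fluorescence.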

Chain of human P2X3 receptor (P56373 whole entry): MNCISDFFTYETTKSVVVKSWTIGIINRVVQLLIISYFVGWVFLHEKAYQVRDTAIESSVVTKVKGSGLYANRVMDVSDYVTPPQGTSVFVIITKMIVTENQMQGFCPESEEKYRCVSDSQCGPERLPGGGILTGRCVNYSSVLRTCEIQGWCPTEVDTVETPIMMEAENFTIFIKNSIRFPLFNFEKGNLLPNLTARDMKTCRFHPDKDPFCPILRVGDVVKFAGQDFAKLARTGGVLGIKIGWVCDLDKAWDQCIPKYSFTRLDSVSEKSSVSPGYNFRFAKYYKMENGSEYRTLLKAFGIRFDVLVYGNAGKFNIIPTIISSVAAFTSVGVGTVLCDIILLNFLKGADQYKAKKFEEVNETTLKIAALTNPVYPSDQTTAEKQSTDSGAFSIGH

Take `COc1ncccc1C1c2c(C(C)(C)C)n[nH]c2C(=O)N1c1ccc(-c2ccco2)cn1` (stereo not drawn) [II-263]: the IC50 was 108 nM.
The result for `COc1ccccc1C1C(C(=O)CC(C)C)=C(O)C(=O)N1c1ccc(-c2ccoc2)cc1` (stereo not drawn) [Compound I-351] reads 101 nM; that for `CC(C)c1n[nH]c2c1C(c1ccccc1C(=O)N(C)C)N(c1ccc(-c3ccsc3)cc1)C2=O` (stereo not drawn) [II-093], 2 nM.
On to `Cc1ccc(-c2ccc(N3C(=O)C(O)=C(C(=O)C(C)C)C3c3ccccc3CCC(=O)N(C)C)cc2)o1` (stereo not drawn) [Compound I-537], for which the IC50 was found to be 83 nM.
As to `CSc1ccc(N2C(=O)c3[nH]nc(C(C)(C)C)c3C2c2ccccc2OCCO)cc1` (stereo not drawn) [II-013], the IC50 turned out to be 19 nM.
Take `COc1ccccc1C1C(C(=O)CC(C)C)=C(O)C(=O)N1c1ccc(-c2ccc(C)o2)cc1` (stereo not drawn) [Compound I-383]: the IC50 came to 36 nM.
The same measure for `CC(=O)N(C)c1ccccc1C1C(C(=O)C(C)C)=C(O)C(=O)N1c1ccc(-c2ccsc2)cc1` (stereo not drawn) [Compound I-212]: 92 nM; for `CC(C)(C)C(=O)C1=C(O)C(=O)N(c2ccc(-c3ccco3)cc2)C1c1ccccc1OCCO` (stereo not drawn) [Compound I-085]: 48 nM.
The result for `COc1ccccc1C1C(C(=O)C(C)(C)C)=C(O)C(=O)N1c1ccc(-c2cscc2C)cc1` (stereo not drawn) [Compound I-193] reads 994 nM.
The result for `CC(C)(C)C(=O)C1=C(O)C(=O)N(c2ccc(-c3ccon3)cc2)C1c1ccccc1OC(F)(F)F` (stereo not drawn) [Compound I-019] reads 132 nM; that for `COc1ccccc1C1C(C(=O)C(C)C)=C(O)C(=O)N1c1ccc(-c2cccs2)cc1` (stereo not drawn) [Compound I-214], 22 nM.
As to `CC(C)(C)c1n[nH]c2c1C(c1ccccc1OC(F)(F)F)N(c1ccc(-c3ccon3)cc1)C2=O` (stereo not drawn) [II-061], the IC50 amounted to 166 nM.
The same measure for `CNC(=O)COc1ccccc1C1c2c(C(C)(C)C)n[nH]c2C(=O)N1c1ccc(-c2ccsc2)cc1` (stereo not drawn) [II-167]: 5 nM; for `CC(C)c1n[nH]c2c1C(c1cccnc1OCC(N)=O)N(c1ccc(-c3ccsc3)cc1)C2=O` (stereo not drawn) [II-054]: 26 nM; for `COCCc1ccccc1C1C(C(=O)C(C)C)=C(O)C(=O)N1c1ccc(-c2ccsc2)cc1` (stereo not drawn) [Compound I-247]: 15 nM.
Consider `CCOCOc1ccccc1C1C(C(=O)C(C)C)=C(O)C(=O)N1c1ccc(-c2nc(C)no2)cc1` (stereo not drawn) [Compound I-545], for which the IC50 came to 142 nM.
The result for `CCOc1ccccc1C1C(C(=O)C(C)(C)C)=C(O)C(=O)N1c1ccc(-c2ccon2)cc1` (stereo not drawn) [Compound I-059] reads 260 nM; that for `Cc1cc(-c2ccc(N3C(=O)C(O)=C(C(=O)CC(C)C)C3c3ccccc3C(=O)N3CCOCC3)cc2)cs1` (stereo not drawn) [Compound I-505], 168 nM; that for `Cc1nc(-c2ccc(N3C(=O)C(O)=C(C(=O)C(C)C)C3c3cccnc3OCCO)cc2)no1` (stereo not drawn) [Compound I-178], 374 nM.
On to `COCCOc1ccccc1C1C(C(=O)CC(C)C)=C(O)C(=O)N1c1ccc(-c2cscn2)cc1` (stereo not drawn) [Compound I-421], for which the IC50 came to 191 nM.
The same measure for `COc1ncccc1C1c2c(C(C)(C)C)n[nH]c2C(=O)N1c1ccc(-c2ccoc2)cc1` (stereo not drawn) [II-220]: 69 nM; for `CC(C)C(=O)C1=C(O)C(=O)N(c2ccc(-c3ccsc3)cc2)C1c1ccccc1OCC(=O)O` (stereo not drawn) [Compound I-185]: 111 nM.
For the molecule `Cc1nc(-c2ccc(N3C(=O)C(O)=C(C(=O)CC(C)C)C3c3ccccc3OCCCO)cc2)no1` (stereo not drawn) [Compound I-445], the IC50 came out at 152 nM.
Consider `CC(C)CC(=O)C1=C(O)C(=O)N(c2ccc(-c3ccon3)cc2)C1c1ccccc1OC(F)(F)F` (stereo not drawn) [Compound I-308], for which the IC50 was 193 nM.
The same measure for `CC(C)C(=O)C1=C(O)C(=O)N(c2ccc(-c3cccs3)cc2)C1c1cccnc1OCCO` (stereo not drawn) [Compound I-229]: 29 nM.
The same measure for `Cc1nc(-c2ccc(N3C(=O)C(O)=C(C(=O)C(C)C)C3c3ccccc3OCCCO)cc2)no1` (stereo not drawn) [Compound I-444]: 172 nM.
Turning to `COc1ccc(C(=O)C2=C(O)C(=O)N(c3ccc(-c4nccs4)cc3)C2c2ccccc2OC)cc1` (stereo not drawn) [Compound I-029], the IC50 came out at 160 nM.
Regarding `COCCOc1ccccc1C1c2c(C(C)(C)C)n[nH]c2C(=O)N1c1ccc(-c2ccco2)cc1` (stereo not drawn) [II-027], the IC50 is 8 nM.
Consider `COCCOc1ccccc1C1C(C(=O)CC(C)C)=C(O)C(=O)N1c1ccc(-c2csc(C)n2)cc1` (stereo not drawn) [Compound I-427], for which the IC50 amounted to 331 nM.
The same measure for `COCOc1ccccc1C1C(C(=O)C(C)C)=C(O)C(=O)N1c1ccc(-c2csc(C)c2)cc1` (stereo not drawn) [Compound I-262]: 16 nM; for `COc1ncccc1C1c2c(C(C)(C)C)n[nH]c2C(=O)N1c1ccc(-c2ccsc2)cc1` (stereo not drawn) [II-223]: 23 nM.
The same measure for `COCc1ccccc1C1C(C(=O)C(C)C)=C(O)C(=O)N1c1ccc(-c2ccccc2)cc1` (stereo not drawn) [Compound I-282]: 472 nM.
The same measure for `CCCc1ccc(N2C(=O)C(O)=C(C(=O)C(C)(C)C)C2c2ccccc2OC)cc1` (stereo not drawn) [Compound I-044]: 468 nM; for `COCCOc1ncccc1C1C(C(=O)C(C)C)=C(O)C(=O)N1c1ccc(-c2noc(C)n2)cc1` (stereo not drawn) [Compound I-174]: 572 nM; for `COCCCOc1ncccc1C1C(C(=O)C(C)C)=C(O)C(=O)N1c1ccc(-c2ccoc2)cc1` (stereo not drawn) [Compound I-567]: 57 nM.
Consider `COc1ncccc1C1C(C(=O)C(C)(C)C)=C(O)C(=O)N1c1ccc(-c2ccsc2)nc1` (stereo not drawn) [Compound I-108], for which the IC50 came to 192 nM.
The same measure for `COc1ccccc1C1c2c(C(C)(C)CO)n[nH]c2C(=O)N1c1ccc(-c2cc(C)no2)cc1` (stereo not drawn) [II-136]: 55 nM.
The same measure for `COCc1ccccc1C1C(C(=O)C(C)C)=C(O)C(=O)N1c1ccc(C2=CCCC2)cc1` (stereo not drawn) [Compound I-527]: 39 nM; for `COc1ccc(C(=O)C2=C(O)C(=O)N(c3ccc4[nH]ccc4c3)C2C2CCCCC2)cc1` (stereo not drawn) [Compound I-012]: 340 nM; for `CC(C)(C)C(=O)C1=C(O)C(=O)N(c2ccc(-c3ccsc3)cc2)C1c1ccccc1C(=O)O` (stereo not drawn) [Compound I-184]: 163 nM.
With `CNC(=O)COc1ccccc1C1C(C(=O)C(C)(C)C)=C(O)C(=O)N1c1ccc(-c2ccon2)cc1` (stereo not drawn) [Compound I-146], the IC50 is 727 nM.
The result for `COc1ccccc1C1C(C(=O)c2cc[nH]c2)=C(O)C(=O)N1c1ccc(-c2csc(C)c2)cc1` (stereo not drawn) [Compound I-553] reads 337 nM; that for `Cc1nc(-c2ccc(N3C(=O)C(O)=C(C(=O)C4CCCC4)C3c3ccccc3OCC(C)C)cc2)no1` (stereo not drawn) [Compound I-519], 33 nM; that for `CC(C)C(=O)C1=C(O)C(=O)N(c2ccc(-c3ccon3)cc2)C1c1ccccc1OCC1CCOCC1` (stereo not drawn) [Compound I-590], 28 nM.
As for `COc1ccccc1[C@@H]1C(C(=O)CC(C)C)=C(O)C(=O)N1c1ccc(-c2ccsc2)cc1` [Compound I-279], the IC50 came to 16 nM.
Take `COCCCOc1ccccc1C1C(C(=O)C(C)C)=C(O)C(=O)N1c1ccc(-c2noc(C)n2)cc1` (stereo not drawn) [Compound I-491]: the IC50 amounted to 155 nM.
The result for `CC(C)c1n[nH]c2c1C(c1ccccc1CC(=O)O)N(c1ccc(-c3ccsc3)cc1)C2=O` (stereo not drawn) [II-094] reads 65 nM; that for `CNC(=O)COc1ncccc1C1C(C(=O)C(C)C)=C(O)C(=O)N1c1ccc(-c2ccsc2)cc1` (stereo not drawn) [Compound I-199], 19 nM.
For the molecule `COc1ncccc1C1c2c(C(C)(C)C)n[nH]c2C(=O)N1c1ccc(Br)cn1` (stereo not drawn) [II-259], the IC50 is 410 nM.
Regarding `Cc1nc(-c2ccc(N3C(=O)C(O)=C(C(=O)C(C)C)C3c3ccccc3OCC(C)C)cc2)no1` (stereo not drawn) [Compound I-451], the IC50 is 19 nM.
The result for `COCc1ccccc1[C@@H]1C(C(=O)C(C)C)=C(O)C(=O)N1c1ccc(-c2ccsc2)cc1` [Compound I-255] reads 8 nM; that for `Cc1ncccc1C1C(C(=O)C(C)(C)C)=C(O)C(=O)N1c1ccc(-c2cccs2)cc1` (stereo not drawn) [Compound I-141], 346 nM.
The same measure for `CC(C)c1n[nH]c2c1C(c1ccccc1OCC(C)(C)O)N(c1ccc(-c3ccsc3)cc1)C2=O` (stereo not drawn) [II-184]: 12 nM; for `COCCOc1ccccc1C1C(C(=O)CC(C)C)=C(O)C(=O)N1c1ccc(-c2coc(C)n2)cc1` (stereo not drawn) [Compound I-391]: 684 nM.
The same measure for `Cc1nc(-c2ccc(N3C(=O)C(O)=C(C(=O)CC(C)C)C3c3ccccc3OCCO)cc2)no1` (stereo not drawn) [Compound I-278]: 366 nM; for `COc1ccccc1C1C(C(=O)C(C)C)=C(O)C(=O)N1c1ccc(-c2ccsc2)c(C)c1` (stereo not drawn) [Compound I-236]: 431 nM.
For the molecule `CCOc1ncccc1C1C(C(=O)C2CCCC2)=C(O)C(=O)N1c1ccc(-c2ccsc2)cc1` (stereo not drawn) [Compound I-515], the IC50 was found to be 37 nM.
The same measure for `CC(C)C(=O)C1=C(O)C(=O)N(c2ccc(-c3ccoc3)cc2)C1c1cccnc1OCCO` (stereo not drawn) [Compound I-233]: 124 nM.
The result for `CCNC(=O)c1ccc(C(=O)C2=C(O)C(=O)N(c3ccc(-c4ccon4)cc3)C2C(CC)CC)cc1` (stereo not drawn) [Compound I-004] reads 12 nM; that for `COc1ccc(C(=O)C2=C(O)C(=O)N(c3nc4ccc(OC)cc4s3)C2c2ccccc2OCCO)cc1` (stereo not drawn) [Compound I-126], 15 nM; that for `COc1ncccc1C1C(C(=O)C(C)C)=C(O)C(=O)N1c1ccc(-c2ccsc2)cc1` (stereo not drawn) [Compound I-187], 86 nM.
Turning to `COc1ccc(C(=O)C2=C(O)C(=O)N(c3ccc(-c4ccco4)cc3)C2C2CCCCC2)cc1` (stereo not drawn) [Compound I-015], the IC50 was found to be 12 nM.
`COc1ccccc1C1C(C(=O)C2CC2)=C(O)C(=O)N1c1ccc(-c2ccsc2)cc1` (stereo not drawn) [Compound I-218]: the IC50 was 73 nM.
As for `COCCOc1ccccc1C1C(C(=O)CC(C)C)=C(O)C(=O)N1c1ccc(SC(F)(F)F)cc1` (stereo not drawn) [Compound I-446], the IC50 was 338 nM.
`COCCOc1ncccc1C1C(C(=O)C(C)(C)C)=C(O)C(=O)N1c1ccc(-c2ccon2)cc1` (stereo not drawn) [Compound I-139]: the half-maximal inhibitory concentration (IC50) amounted to 930 nM.
The same measure for `COc1ccccc1C1C(C(=O)C(C)(C)C)=C(O)C(=O)N1c1ccc(-c2ccc(C)s2)cc1` (stereo not drawn) [Compound I-210]: 47 nM.
